According to BindingDB's records for doi:10.1021/jm00031a001 (Fisons, 1994):

Experiments:
[1] = molecular target: Phospholipase A2 group IB (pancreatic, Sus scrofa); test: In vitro activity against porcine pancreatic phospholipase-A2 (PLA2) and monomerically dispersed substrate
[2] = molecular target: Phospholipase A2 group IB (Sus scrofa); test: In vitro activity against porcine pancreatic phospholipase-A2 (PLA2) and micellar substrate with deoxycholate (DOC)

IC50 [1] | IC50 [2] | Structure (SMILES)
300 nM | 8500 nM | CCCCCC/C=C/CC(=O)N[C@@H](CC(=O)O)CC(C)C [(R)-3-((S)-(E)-Dec-3-enoylamino)-5-methyl-hexanoic acid]
1400 nM | 15000 nM | CCCCCCCCCC(=O)N[C@@H](CC(=O)O)CC(C)C [(R)-3-((S)-Decanoylamino)-5-methyl-hexanoic acid]
190 nM | 7300 nM | CCCCCCCCCCCCCCCC(=O)N[C@@H](CC(=O)O)CC(C)C [(R)-3-((S)-Hexadecanoylamino)-5-methyl-hexanoic acid]
23 nM | 790 nM | CCCCCC/C=C/CC(=O)N[C@H](CSc1ccc2ccccc2c1)CC(=O)O [(S)-3-((S)-(E)-Dec-3-enoylamino)-4-(naphthalen-2-ylsulfanyl)-butyric acid]
95 nM | 2200 nM | CCCCCC/C=C/CC(=O)N[C@H](CSc1ccccc1)CC(=O)O [(S)-3-((S)-(E)-Dec-3-enoylamino)-4-phenylsulfanyl-butyric acid]
200 nM | 4500 nM | CCCCCCCCCCCCCCCC(=O)N[C@@H](CCC(=O)O)CC(C)C [(S)-4-((S)-Hexadecanoylamino)-6-methyl-heptanoic acid]
1300 nM | 19000 nM | CCCCCCCCCCCCCCCC(=O)N[C@@H](CCCC(=O)O)CC(C)C [(S)-5-((S)-Hexadecanoylamino)-7-methyl-octanoic acid]
